Data taken from article PMC11003481, “Synthesis, biological evaluation, and computational studies of N-benzyl pyridinium–curcumin derivatives as potent AChE inhibitors with antioxidant activity” (Journal of Enzyme Inhibition and Medicinal Chemistry, 2023).
“And” between values parts separate entries of the source, which are not always exact repeats. Equal entries are not always repeated.

What was measured:
[1] = ABTS radical cation decolorisation antioxidant assay
Method: The antioxidant activity was determined using a radical cation (ABTS^.+) decolorisation assay, as described by Xiao et al.[21] with a few modifications. The assay used a BioTek Epoch 2 microplate spectrophotometer (Agilent, USA) with clear, flat-bottom 96-well plates. The 7 mmol/L ABTS^.+ stock solution was prepared by dissolving 96.02 mg ABTS in acetic acid buffer (pH 4.5) and to a final volume of 25 ml, which was kept in the dark at 0–4 °C. A 2.45 mmol/L potassium persulfate (K2S2O8) stock solution was prepared by dissolving 66.24 mg K2S2O8 in acetic acid buffer solution with pH 4.5, and then diluted to 100 ml and kept in the dark at 0–4 °C. The ABTS working solution was prepared by mixing similar quantities of 7 mmol/L ABTS and 2.45 mmol/L K2S2O8. This solution was stored in a dark cabinet for 16 h before use, when it was diluted with distilled water to obtain an absorbance of 0.70 at 734 nm. In a clear, flat-bottom 96-well plate, 200 μL of ABTS working solution and 10.0 μL sample solution at different concentrations (0.0312–0.5 mg/mL) were mixed well and incubated in the dark for 7 min before the absorbance was measured at 734 nm using a microplate reader. A blank was run for each assay, and all measurements were performed after 7 min. The ABTS scavenging capacity of inhibitors was compared with that of trolox and α-tocopherol. […]

eeAChE = eeAChE (Electrophorus electricus, UniProt O42275); assay: biochemical; format: biochemical; settings: for Ki: from slopes of Lineweaver-Burk plots versus inhibitor concentration, substrate ATCh, read-out: Ki ± SEM eeAChE
Chain of eeAChE (O42275 24-633): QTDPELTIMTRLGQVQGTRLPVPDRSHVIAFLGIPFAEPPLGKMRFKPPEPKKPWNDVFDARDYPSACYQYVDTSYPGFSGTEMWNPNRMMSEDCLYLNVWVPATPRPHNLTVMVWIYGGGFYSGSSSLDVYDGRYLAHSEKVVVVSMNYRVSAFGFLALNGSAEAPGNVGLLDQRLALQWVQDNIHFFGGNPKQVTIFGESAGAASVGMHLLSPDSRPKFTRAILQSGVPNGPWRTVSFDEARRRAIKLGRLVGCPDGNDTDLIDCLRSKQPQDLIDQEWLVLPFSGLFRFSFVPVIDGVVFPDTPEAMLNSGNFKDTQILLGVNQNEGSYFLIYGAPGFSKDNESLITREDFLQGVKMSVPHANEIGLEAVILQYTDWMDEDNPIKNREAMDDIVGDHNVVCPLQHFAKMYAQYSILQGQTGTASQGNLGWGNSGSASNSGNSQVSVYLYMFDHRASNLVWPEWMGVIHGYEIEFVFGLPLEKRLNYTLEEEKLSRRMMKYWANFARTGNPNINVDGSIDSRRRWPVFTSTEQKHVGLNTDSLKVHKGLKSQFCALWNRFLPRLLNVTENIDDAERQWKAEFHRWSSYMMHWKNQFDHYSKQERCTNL
Method: The slopes of the Lineweaver-Burk reciprocal plots against the concentrations of the compound (inhibitor) were plotted to obtain the Ki values for the prepared compounds (Table 1). The value at which the line intersects the x-axis is -Ki.
The assay was performed in triplicate using different inhibitor concentrations. […] The assay was carried out in clear, flat-bottom 96-well plates, to which 5 µL distilled water was added to all wells of columns 2–3, rows B-F. Then, 5 µL of the lowest concentration of inhibitor solution was added to the wells of columns 4–5, 5 µL of the median concentration of inhibitor solution was added to the wells of columns 6–7, and 5 µL of the highest concentration of inhibitor solution was added to the wells of columns 8–9. Next, 275 μL enzyme solution was added to the wells, and the plates were incubated for 4 min. Then, 10 μL 2.5 mM DTNB was added to the wells, followed by 10 μL of 32, 16, 8, 4, or 2 mM ATCh solutions to initiate the reactions. The plates were placed in a microplate reader for direct kinetic measurements.
The inhibition constant (Ki) for each inhibitor was calculated by averaging the ATCh hydrolysis rates from three independent experiments. Using GraphPad Prism 8 software, nonlinear regression was used to calculate the Km and Vmax values of the Michaelis-Menten kinetics by plotting [substrate] versus velocity. For the Lineweaver-Burk plots, linear regression was used to plot [1/ATCh] versus […]. Finally, the Ki values were obtained by plotting the slopes against [inhibitor] [20].

[2] = target: acetylcholinesterase (eeAChE, from Electrophorus electricus) (Electrophorus electricus, UniProt O42275); assay: biochemical; settings: for Selectivity Index (SI) (AChE): Selectivity ratio [IC50(BChE)/IC50(AChE)]; for IC50: eeAChE, mean ± SEM of three independent experiments, duplicate samples, read-out: IC50 ± SEM AChE
Chain of acetylcholinesterase (eeAChE, from Electrophorus electricus) (O42275 24-633): as above
Method: (§1) The AChE and BChE inhibitory activity assays were performed using a BioTek Epoch 2 microplate spectrophotometer in clear, flat-bottom 96-well plates. […] To each well, 295 µL phosphate buffer pH 8.0, 10 µL enzyme solution (AChE/BChE), and 10 µL target compound solutions were added together and allowed to stand for 4 min at room temperature. Then, 10 µL of 0.01 M solution freshly prepared Ellman’s reagent 5,5′-dithiobis(2-nitrobenzoic acid) (DTNB) was added to each well. The reaction in the wells was started by the addition of 2 µL of 0.075 M solution freshly prepared substrate (ATCh (acetylthiocholine iodide)/BTCh (S-butyrylthiocholine iodide)) solution. The solution was mixed immediately and incubated for 2:30 min for AChE or for 5 min for BChE inside the microplate reader at 26 °C. […] The IC50 values were calculated graphically by nonlinear regression analysis of inhibition curves that were obtained by plotting the logarithm of the inhibitor concentrations versus the percentage of inhibition (log(inhibitor) vs. normalised response) using GraphPad Prism 8 software (See Supplementary Information for details).

[3] = target: T1, butyrylcholinesterase (eqBChE, from equine serum) (Equus caballus, UniProt P81908); assay: biochemical; settings: mean ± SEM of three independent experiments, duplicate samples, read-out: IC50 ± SEM BChE
T1 construct: butyrylcholinesterase (eqBChE, from equine serum); from tissue; host or cells: equine serum
T1 sequence (P81908 whole entry): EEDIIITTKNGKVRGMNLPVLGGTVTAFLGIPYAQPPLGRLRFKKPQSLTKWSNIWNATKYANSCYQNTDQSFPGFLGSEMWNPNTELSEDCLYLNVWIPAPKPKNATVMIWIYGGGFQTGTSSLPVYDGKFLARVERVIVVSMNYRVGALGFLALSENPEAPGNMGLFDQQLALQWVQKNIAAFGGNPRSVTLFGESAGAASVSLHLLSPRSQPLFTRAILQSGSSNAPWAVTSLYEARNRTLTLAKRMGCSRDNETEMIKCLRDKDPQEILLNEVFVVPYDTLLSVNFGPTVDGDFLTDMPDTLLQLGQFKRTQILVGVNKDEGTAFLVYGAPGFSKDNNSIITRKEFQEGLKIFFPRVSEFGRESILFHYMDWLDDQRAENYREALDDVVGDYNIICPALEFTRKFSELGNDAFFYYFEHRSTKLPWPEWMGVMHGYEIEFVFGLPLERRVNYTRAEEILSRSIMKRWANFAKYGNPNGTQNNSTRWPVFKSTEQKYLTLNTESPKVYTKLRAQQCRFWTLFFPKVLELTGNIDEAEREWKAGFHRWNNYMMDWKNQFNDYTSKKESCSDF
Method: as §1

| Compound | ABTS Inhibition % ([1]; 0.0312 mg/mL) | ABTS Inhibition % ([1]; 0.0625 mg/mL) | ABTS Inhibition % ([1]; 0.125 mg/mL) | ABTS Inhibition % ([1]; 0.25 mg/mL) | ABTS Inhibition % ([1]; 0.5 mg/mL) | Ki (eeAChE) | Selectivity Index (SI) (AChE) [2] | IC50 [2] | IC50 [3] | Type of AChE inhibition (Lineweaver-Burk pattern) (eeAChE; slopes and intercepts increased with inhibitor concentration) |
| --- | --- | --- | --- | --- | --- | --- | --- | --- | --- | --- |
| COc1cc(/C=C/C(=O)/C=C/c2cc[n+](Cc3ccc(F)cc3)cc2)ccc1O [7 g, 1–(4-Fluorobenzyl)-4-(1E,4E)-5–(4-hydroxy-3-methoxyphenyl)-3-oxopenta-1,4-dien-1-yl)pyridin-1-ium bromide] | 6.1 ± 0.82% | 13.9 ± 0.68% | 22.5 ± 0.77% | 30.2 ± 1.86% | 52.1 ± 1.58% | 6 ± 0.031 nM | 65 | 16 ± 0.18 nM | 1040 ± 81 nM | – |
| COc1cc(/C=C/C(=O)/C=C/c2ccc[n+](Cc3ccc(F)cc3)c2)ccc1O [8 g, 1–(4-Fluorobenzyl)-3-(1E,4E)-5–(4-hydroxy-3-methoxyphenyl)-3-oxopenta-1,4-dien-1-yl)pyridin-1-ium bromide] | 6.1 ± 0.71% | 13.7 ± 0.52% | 24.7 ± 0.51% | 39.5 ± 0.38% | – | 10 ± 0.025 nM | 79 | 16 ± 0.24 nM | 1200 ± 97 nM | – |
| O=C(/C=C/c1ccccc1)/C=C/c1cc[n+](Cc2ccccc2)cc1 [Compound 7a, 1-Benzyl-4-(1E,4E)-3-oxo-5-phenylpenta-1,4-dien-1-yl)pyridin-1-ium bromide] | 1.4 ± 0.56% | 1.5 ± 0.30% | 1.7 ± 0.68% | 3.5 ± 0.72% | 6.4 ± 0.47% | 39 ± 0.011 nM | 19 | 32 ± 0.22 nM | – | mixed-type inhibition |
| O=C(/C=C/c1ccccc1)/C=C/c1cc[n+](Cc2ccc(F)cc2)cc1 [Compound 7b] | 0.5 ± 0.47% | 1.4 ± 0.07% | 3.3 ± 0.10% | 6.2 ± 0.50% | 7.1 ± 0.59% | 56 ± 0.016 nM | 21 | 52 ± 0.18 nM | 1070 ± 80 nM | – |
| COc1cc(/C=C/C(=O)/C=C/c2cc[n+](Cc3ccccc3)cc2)ccc1O [Compound 7f, 1-Benzyl-4-(1E,4E)-5–(4-hydroxy-3-methoxyphenyl)-3-oxopenta-1,4-dien-1-yl)pyridin-1-ium bromide] | 5.9 ± 0.47% | 13.7 ± 0.50% | 23.7 ± 0.51% | 35.5 ± 0.93% | 55.3 ± 1.42% | 6 ± 0.036 nM | 55 | 7.5 nM | – | – |
| O=C(/C=C/c1ccccc1)/C=C/c1ccc[n+](Cc2ccccc2)c1 [Compound 8a, 1-Benzyl-3-(1E,4E)-3-oxo-5-phenylpenta-1,4-dien-1-yl)pyridin-1-ium bromide] | 0.0 ± 0.70% | 0.3 ± 0.28% | 0.4 ± 0.36% | 1.4 ± 0.49% | 2.6 ± 0.38% | 102 ± 0.008 nM | 14 | ≤ 56 nM and 56 nM | – | – |
| O=C(/C=C/c1ccccc1)/C=C/c1ccc[n+](Cc2ccc(F)cc2)c1 [Compound 8b, 1–(4-Fluorobenzyl)-3-(1E,4E)-3-oxo-5-phenylpenta-1,4-dien-1-yl)pyridin-1-ium bromide] | 0.2 ± 0.40% | 0.3 ± 0.22% | 1.0 ± 0.52% | 2.3 ± 0.64% | 5.1 ± 0.62% | 90 ± 0.012 nM | 7 | ≤ 56 nM and 54 nM | – | – |
| COc1cc(/C=C/C(=O)/C=C/c2ccc[n+](Cc3ccccc3)c2)ccc1O [Compound 8f, 1-Benzyl-3-(1E,4E)-5–(4-hydroxy-3-methoxyphenyl)-3-oxopenta-1,4-dien-1-yl)pyridin-1-ium bromide] | 7.7 ± 0.97% | 15.8 ± 0.18% | 25.4 ± 0.57% | 39.3 ± 0.23% | – | 16 ± 0.022 nM | – | 17 ± 0.17 nM | 3500 ± 95 nM | – |
| COc1cc(/C=C/C(=O)/C=C/c2ccc[n+](Cc3ccc([N+](=O)[O-])cc3)c2)ccc1O [Compound 8j, 3-(1E,4E)-5–(4-Hydroxy-3-methoxyphenyl)-3-oxopenta-1,4-dien-1-yl)-1–(4-nitrobenzyl)pyridin-1-ium bromide] | – | – | – | – | – | – | – | 660 ± 0.21 nM | 9800 ± 90 nM | – |
